Measurements published in patent US20230212180A1, “SUBSTITUTED PYRAZINE COMPOUND, PHARMACEUTICAL COMPOSITION COMPRISING SAME, AND USE THEREOF” (Sichuan Kelun-Biotech Biopharmaceutical Co., Ltd., priority 2020, published 2023).

Columns and labels:
[1] = target: T1, SGK (SGK1) (Homo sapiens, UniProt O00141); assay: Kinase selectivity test (ThermoFisher); assay type: biochemical; design: concentration or dose not given beside the values
T1 construct: purchased ThermoFisher USA (contract testing)
T1 sequence (O00141 1-431): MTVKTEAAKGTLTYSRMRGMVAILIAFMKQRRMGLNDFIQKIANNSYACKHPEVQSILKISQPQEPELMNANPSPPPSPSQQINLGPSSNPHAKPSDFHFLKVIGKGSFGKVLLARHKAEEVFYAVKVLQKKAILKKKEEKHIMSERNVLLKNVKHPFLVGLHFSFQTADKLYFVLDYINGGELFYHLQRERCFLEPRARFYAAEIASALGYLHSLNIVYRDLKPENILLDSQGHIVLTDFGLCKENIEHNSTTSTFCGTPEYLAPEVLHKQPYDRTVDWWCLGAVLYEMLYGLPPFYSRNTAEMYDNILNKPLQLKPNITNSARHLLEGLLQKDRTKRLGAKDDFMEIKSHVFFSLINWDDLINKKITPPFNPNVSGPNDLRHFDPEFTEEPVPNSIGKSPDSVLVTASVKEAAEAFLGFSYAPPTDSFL
Experimental: (§1) Test Example 11: Kinase Selectivity Test
(§2) 1. Experimental Purpose: Tests for selectivity of the compounds of the present disclosure for a plurality of kinases were carried out to assess the safety risk of the compounds of the present disclosure.
(§3) 2. Test institution: ThermoFisher USA
(§4) 3. Testing methods: LanthaScreen binding, Z′-LYTE, Adapta
(§5) 4. Test targets: 100 targets in total

[2] = target: T2, CDK8/ cyclin C (Homo sapiens, UniProt P49336); assay: Kinase selectivity test (ThermoFisher); assay type: biochemical; design: concentration or dose not given beside the values
T2 construct: purchased ThermoFisher USA (contract testing)
Experimental: as §1, §2, §3, §4, §5

[3] = target: T3, KDR (VEGFR2) (Homo sapiens, UniProt P35968); assay: Kinase selectivity test (ThermoFisher); assay type: biochemical; design: concentration or dose not given beside the values
T3 construct: purchased ThermoFisher USA (contract testing)
Experimental: as §1, §2, §3, §4, §5

[4] = target: T4, JAK2 (Homo sapiens, UniProt O60674); assay: Kinase selectivity test (ThermoFisher); assay type: biochemical; design: concentration or dose not given beside the values
T4 construct: purchased ThermoFisher USA (contract testing)
Experimental: as §1, §2, §3, §4, §5

[5] = test system: NCI-H358 cell xenograft; assay: Tumor inhibition in NCI-H358 xenograft model; assay type: in vivo, Balb/c-nu mice; settings: for TGI (%) (calculated by the tumor volume): oral, 21 days
Text: Test Example 10: Experiment on Tumor Inhibition in NCI-H358 Xenograft Model
A subcutaneous xenograft mouse model was established by subcutaneously inoculating human non-small cell lung cancer cells NCI-H358 into the right scapulae of Balb/c-nu mice. After tumor formation, the mice were orally administered to evaluate the in vivo drug efficacy of different test compounds.
The NCI-H358 cells were subjected to monolayer in vitro culture. The culture conditions were as follows: 10% fetal bovine serum was added into the RPMI 1640 medium, and the cells were cultured in an incubator at 37° C. in air containing 5% CO2. The cells were digested twice/trice a week with pancreatin-EDTA for passaging. When the cells were in exponential growth phase, the cells were harvested, counted, and inoculated.
Before inoculated with tumor cells, the experimental mice were identified sequentially with numbered ear spikes specific to mice.
Every of the mice were subcutaneously inoculated with 1×10^6 NCI-H358 cells (suspended in 0.1 ml PBS+Matrigel Matrix) into the right scapulae. It was predicted that the mean tumor volume on Day 7 would be ˜200 mm^3. Based on the measurement results on Day 7, thirty mice with regular shapes and uniform volumes of tumor were screened, randomly divided into 5 groups and administered according to the experimental scheme (the dosing regimen was as shown in Table 10 (lasting for 21 days)). The vehicle was 5% DMSO+5% Solutol+90% H2O.
Mice were weighed and tumor volumes were measured trice a week, and the data were recorded. The tumor volume (V) was calculated by the following equation: V=½×a×b^2, wherein a and b indicated the length and width, respectively.
(§6) The anti-tumor efficacy was evaluated by tumor growth inhibition TGI (%). […] When the tumor regressed, TGI (%) (tumor volume)=100%−(TVt−TV0)/TV0×100%.
If the tumor was smaller than its initial volume, i.e., Vt<V0, it was defined as partial regression (PR) of the tumor. If the tumor disappeared completely, it was defined as complete regression (CR) of the tumor.

[6] = target: T5, EGFR (ErbB1) T790M L858R (Homo sapiens, UniProt P00533, L858R/T790M); assay: Kinase selectivity test (ThermoFisher); assay type: biochemical
T5 construct: purchased ThermoFisher USA (contract testing)
Experimental: as §1, §2, §3, §4, §5

[7] = test system: KYSE-520 cell xenograft; assay: Tumor inhibition in KYSE-520 xenograft model; assay type: in vivo, nu-nu mice; settings: for TGI (%) (calculated by the tumor volume): once-daily oral, 21 consecutive days
Experimental: Test Example 9: Experiment on Tumor Inhibition in KYSE-520 Xenograft Model
A CDX xenograft animal model was established by subcutaneously inoculating KYSE-520 cells in nu-nu mice. After tumor formation, the mice were orally administered once daily to evaluate the in vivo drug efficacy of different test compounds.
The KYSE-520 cells were subjected to monolayer in vitro culture. The culture conditions were as follows: 10% fetal bovine serum was added into the RPMI 1640 medium, and the cells were cultured in an incubator at 37° C. in air containing 5% CO2. The cells were digested twice a week with […] for passaging. When the cells were in exponential growth phase, the cells were harvested and counted. The KYSE-520 cell strains cultured to the logarithmic growth phase were prepared into a single cell suspension (the cells were resuspended in PBS and mixed with Matrigel Matrix Phenol Red-free at a ratio of 1:1, and the final concentration of the cells was 5×10^7/ml). Each of the nude mice was inoculated with 0.1 ml subcutaneously into the right axilla of the nude mice to establish a xenograft model of nude mice with esophageal cancer. When the tumors grew to 130 mm^3, the nude mice were randomly divided into 5 groups and administered. The dosage regime was as shown in Table 9 (once-daily oral administration for 21 consecutive days). The vehicle was 5% DMSO+5% Solutol+90% H2O.
The animals were monitored daily for health and mortality. Routine inspections included observing the influences of drug treatment on the animals' daily behaviors, such as actions and activities, food (water) intake, physical signs, or other abnormalities, and recording them accordingly.
Mice were weighed and tumor volumes were measured twice a week, and the data were recorded. The tumor volume (V) was calculated by the following equation: V=½×a×b^2, wherein a and b indicated the length and width, respectively.
as §6

[8] = oral administration for 21 consecutive days

T4 sequence (O60674 whole entry): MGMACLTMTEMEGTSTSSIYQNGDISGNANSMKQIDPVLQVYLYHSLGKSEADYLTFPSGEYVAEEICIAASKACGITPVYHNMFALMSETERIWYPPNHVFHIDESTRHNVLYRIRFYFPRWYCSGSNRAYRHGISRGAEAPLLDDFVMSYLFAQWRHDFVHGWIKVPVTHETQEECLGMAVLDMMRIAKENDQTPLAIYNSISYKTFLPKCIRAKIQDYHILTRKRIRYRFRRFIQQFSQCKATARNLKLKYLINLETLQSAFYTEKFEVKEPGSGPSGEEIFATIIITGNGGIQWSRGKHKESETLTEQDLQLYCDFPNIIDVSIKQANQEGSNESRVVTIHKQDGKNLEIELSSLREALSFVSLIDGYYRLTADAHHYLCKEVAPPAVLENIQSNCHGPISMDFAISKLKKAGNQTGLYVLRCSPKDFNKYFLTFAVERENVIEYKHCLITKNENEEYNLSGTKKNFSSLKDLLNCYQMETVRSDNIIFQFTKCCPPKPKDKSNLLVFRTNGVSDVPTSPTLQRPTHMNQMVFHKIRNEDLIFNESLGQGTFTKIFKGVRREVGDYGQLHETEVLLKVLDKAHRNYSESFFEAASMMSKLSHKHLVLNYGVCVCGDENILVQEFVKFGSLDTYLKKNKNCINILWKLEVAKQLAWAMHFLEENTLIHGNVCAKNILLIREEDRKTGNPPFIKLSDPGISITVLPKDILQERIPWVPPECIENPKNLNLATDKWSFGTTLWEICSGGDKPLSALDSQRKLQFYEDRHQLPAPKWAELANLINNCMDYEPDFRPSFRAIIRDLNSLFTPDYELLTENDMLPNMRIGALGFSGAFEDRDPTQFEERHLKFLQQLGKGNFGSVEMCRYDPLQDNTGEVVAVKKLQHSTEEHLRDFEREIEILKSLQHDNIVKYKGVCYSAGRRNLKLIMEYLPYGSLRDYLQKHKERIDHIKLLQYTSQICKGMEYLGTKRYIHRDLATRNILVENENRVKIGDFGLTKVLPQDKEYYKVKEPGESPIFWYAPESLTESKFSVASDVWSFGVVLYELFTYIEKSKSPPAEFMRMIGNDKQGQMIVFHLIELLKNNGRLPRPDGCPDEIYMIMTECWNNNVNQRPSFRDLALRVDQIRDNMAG
T2 sequence (P49336 whole entry): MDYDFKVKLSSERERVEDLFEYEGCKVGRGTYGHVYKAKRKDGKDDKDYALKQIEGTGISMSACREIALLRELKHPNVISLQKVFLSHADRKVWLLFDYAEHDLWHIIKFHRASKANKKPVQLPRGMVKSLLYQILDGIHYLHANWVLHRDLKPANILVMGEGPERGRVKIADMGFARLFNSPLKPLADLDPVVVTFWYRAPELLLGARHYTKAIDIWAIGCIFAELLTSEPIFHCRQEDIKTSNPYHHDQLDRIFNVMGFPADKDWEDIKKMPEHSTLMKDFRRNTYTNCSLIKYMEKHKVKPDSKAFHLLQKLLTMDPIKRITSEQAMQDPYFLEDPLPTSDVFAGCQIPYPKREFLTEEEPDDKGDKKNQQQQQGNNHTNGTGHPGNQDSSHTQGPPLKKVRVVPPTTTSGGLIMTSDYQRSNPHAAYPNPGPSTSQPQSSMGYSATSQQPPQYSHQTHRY
T2 sequence (P24863 whole entry partner): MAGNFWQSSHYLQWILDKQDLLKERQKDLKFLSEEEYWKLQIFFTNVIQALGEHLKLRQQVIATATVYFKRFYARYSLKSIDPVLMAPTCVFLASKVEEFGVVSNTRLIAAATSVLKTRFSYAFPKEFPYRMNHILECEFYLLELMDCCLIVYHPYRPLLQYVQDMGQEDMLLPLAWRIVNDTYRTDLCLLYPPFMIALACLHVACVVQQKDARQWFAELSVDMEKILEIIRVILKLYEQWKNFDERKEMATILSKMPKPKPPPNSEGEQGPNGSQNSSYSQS
T5 sequence (P00533 25-1210 T790M/L858R): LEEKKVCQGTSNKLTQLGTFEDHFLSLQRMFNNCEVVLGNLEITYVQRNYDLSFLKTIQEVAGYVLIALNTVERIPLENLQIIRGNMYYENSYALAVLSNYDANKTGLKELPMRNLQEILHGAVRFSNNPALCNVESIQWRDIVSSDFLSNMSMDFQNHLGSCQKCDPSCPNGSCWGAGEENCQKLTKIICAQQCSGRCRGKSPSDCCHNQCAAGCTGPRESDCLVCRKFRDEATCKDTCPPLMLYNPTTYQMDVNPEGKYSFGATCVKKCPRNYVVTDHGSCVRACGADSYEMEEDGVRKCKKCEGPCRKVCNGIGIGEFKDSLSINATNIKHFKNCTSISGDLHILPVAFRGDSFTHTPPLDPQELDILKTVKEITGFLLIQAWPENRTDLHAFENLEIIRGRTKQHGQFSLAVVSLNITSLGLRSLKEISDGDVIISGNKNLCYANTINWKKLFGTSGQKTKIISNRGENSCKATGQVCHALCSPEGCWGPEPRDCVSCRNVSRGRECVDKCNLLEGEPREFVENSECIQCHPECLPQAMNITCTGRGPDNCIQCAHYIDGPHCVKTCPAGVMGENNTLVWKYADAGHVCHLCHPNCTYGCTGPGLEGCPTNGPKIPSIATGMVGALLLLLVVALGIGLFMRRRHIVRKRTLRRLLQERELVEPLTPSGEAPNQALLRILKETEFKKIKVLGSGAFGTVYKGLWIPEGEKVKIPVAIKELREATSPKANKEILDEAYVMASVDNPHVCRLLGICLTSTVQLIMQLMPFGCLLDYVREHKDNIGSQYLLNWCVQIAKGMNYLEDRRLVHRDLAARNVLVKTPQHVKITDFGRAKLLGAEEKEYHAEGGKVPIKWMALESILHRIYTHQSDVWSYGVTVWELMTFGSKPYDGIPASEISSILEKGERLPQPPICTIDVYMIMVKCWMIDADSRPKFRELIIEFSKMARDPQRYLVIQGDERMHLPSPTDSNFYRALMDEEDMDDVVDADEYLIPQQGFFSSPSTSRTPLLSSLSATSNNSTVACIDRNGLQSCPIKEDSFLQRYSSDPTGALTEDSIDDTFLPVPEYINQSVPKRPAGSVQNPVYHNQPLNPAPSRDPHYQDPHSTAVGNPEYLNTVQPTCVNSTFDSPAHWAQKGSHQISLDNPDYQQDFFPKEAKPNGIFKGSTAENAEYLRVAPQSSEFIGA
T3 sequence (P35968 20-1356): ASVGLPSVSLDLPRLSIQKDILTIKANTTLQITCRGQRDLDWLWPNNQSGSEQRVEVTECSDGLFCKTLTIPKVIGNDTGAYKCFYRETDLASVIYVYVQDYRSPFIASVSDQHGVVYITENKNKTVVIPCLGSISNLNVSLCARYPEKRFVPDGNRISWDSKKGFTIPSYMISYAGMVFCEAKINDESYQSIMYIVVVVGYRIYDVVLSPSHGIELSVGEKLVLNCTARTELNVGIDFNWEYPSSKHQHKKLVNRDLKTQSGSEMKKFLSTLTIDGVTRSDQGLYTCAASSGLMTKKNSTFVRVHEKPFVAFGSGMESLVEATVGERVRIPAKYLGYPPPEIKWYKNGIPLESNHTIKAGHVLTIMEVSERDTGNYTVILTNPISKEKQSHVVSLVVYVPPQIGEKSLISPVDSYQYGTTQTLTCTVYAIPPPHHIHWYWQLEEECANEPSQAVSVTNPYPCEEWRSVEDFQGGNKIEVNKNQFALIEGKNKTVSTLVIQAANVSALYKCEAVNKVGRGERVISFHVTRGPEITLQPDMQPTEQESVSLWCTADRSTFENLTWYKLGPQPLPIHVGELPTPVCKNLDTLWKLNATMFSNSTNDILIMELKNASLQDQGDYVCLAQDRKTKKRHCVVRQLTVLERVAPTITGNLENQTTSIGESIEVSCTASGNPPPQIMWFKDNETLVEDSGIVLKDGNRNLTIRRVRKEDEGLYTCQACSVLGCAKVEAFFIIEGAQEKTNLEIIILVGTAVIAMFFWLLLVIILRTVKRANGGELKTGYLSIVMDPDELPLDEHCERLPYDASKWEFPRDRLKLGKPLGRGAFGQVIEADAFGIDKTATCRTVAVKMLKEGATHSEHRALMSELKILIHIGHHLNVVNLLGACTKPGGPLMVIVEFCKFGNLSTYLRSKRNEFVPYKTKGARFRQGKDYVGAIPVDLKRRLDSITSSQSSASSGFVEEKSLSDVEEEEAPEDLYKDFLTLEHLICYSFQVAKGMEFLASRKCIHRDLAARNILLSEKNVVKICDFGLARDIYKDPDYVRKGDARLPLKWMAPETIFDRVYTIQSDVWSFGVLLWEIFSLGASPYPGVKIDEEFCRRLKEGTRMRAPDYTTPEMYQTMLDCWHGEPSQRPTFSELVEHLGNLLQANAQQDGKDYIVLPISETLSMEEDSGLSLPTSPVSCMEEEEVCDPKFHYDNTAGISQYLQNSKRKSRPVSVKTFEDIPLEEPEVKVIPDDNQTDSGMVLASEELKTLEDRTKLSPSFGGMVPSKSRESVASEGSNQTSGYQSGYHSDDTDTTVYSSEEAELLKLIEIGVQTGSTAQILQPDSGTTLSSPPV

Compound	Inhibition (%) Target 1 [1]	Inhibition (%) Target 2 [1]	Inhibition (%) Mean value [1]	Inhibition (%) Target 1 [2]	Inhibition (%) Target 2 [2]	Inhibition (%) Mean value [2]	Inhibition (%) Target 1 [3]	Inhibition (%) Target 2 [3]	Inhibition (%) Mean value [3]	Inhibition (%) Target 1 [4]	Inhibition (%) Target 2 [4]	Inhibition (%) Mean value [4]	TGI (%) (calculated by the tumor volume) ([5]; 10 mpk/QD)	Inhibition (%) Target 1 [6]	Inhibition (%) Target 2 [6]	Inhibition (%) Mean value [6]	TGI (%) (calculated by the tumor volume) ([7]; 10 mpk)	TGI (%) (calculated by the tumor volume) ([7]; 30 mpk)	further results
C[C@@H]1OCC2(CCN(c3ncc(Sc4ccnc(N5CC(C(C)(C)O)C5)c4Cl)nc3CO)CC2)[C@@H]1N [Example 12, 2-(1-(4-(5-((3S,4S)-4-amino-3-methyl-2-oxa-8-azaspiro[4.5]decan-8-yl)-6-(hydroxymethyl)pyrazin-2-ylthio)-3-chloropyridin-2-yl)azetidin-3-yl)propan-2-ol]	1%	2%	1%	7%	−3%	2%	3%	4%	3%	−7%	−2%	−4%	93.14%	0%	5%	2%	81.28%	96.93%	TGI (%) (calculated by the tumor volume) ([5]; 3 mpk/QD): 84.35%; tumor inhibitory effect (in words) [5, 8]: remarkable tumor inhibitory effect; tumor inhibitory effect (in words) [7, 8]: remarkable tumor inhibitory effect
C[C@@H]1OCC2(CCN(c3cnc(Sc4ccnc(N)c4Cl)c(N)n3)CC2)[C@@H]1N [TNO-155, reference compound]	62%	57%	60%	89%	89%	89%	73%	73%	73%	61%	57%	59%	58.49%	81%	77%	79%	55.49%	72.74%	TGI (%) (calculated by the tumor volume) ([5]; 5 mpk/BID): 68.59%
